Data as given in patent US20250214969A1, “PROTEIN DEGRADERS AND USES THEREOF” (Kymera Therapeutics, Inc., priority 2022, published 2025).

Tests used:
[1] = target: T1, truncated His-MBP-Tev-KLHDC2 (residues 1-363) (Homo sapiens, UniProt Q9Y2U9); test: KLHDC2 FP competition binding assay; settings: 15 nM KLHDC2 (residues 1-363), 10 nM fluorescein-labeled diglycine peptide probe, read-out: KLHDC2 binding Human FP: average external IC50
T1 construct: truncated His -MBP-Tev-KLHDC2 (residues 1-363) purified from E. coli; made in house; host or cells: E. coli
T1 sequence (Q9Y2U9 1-363): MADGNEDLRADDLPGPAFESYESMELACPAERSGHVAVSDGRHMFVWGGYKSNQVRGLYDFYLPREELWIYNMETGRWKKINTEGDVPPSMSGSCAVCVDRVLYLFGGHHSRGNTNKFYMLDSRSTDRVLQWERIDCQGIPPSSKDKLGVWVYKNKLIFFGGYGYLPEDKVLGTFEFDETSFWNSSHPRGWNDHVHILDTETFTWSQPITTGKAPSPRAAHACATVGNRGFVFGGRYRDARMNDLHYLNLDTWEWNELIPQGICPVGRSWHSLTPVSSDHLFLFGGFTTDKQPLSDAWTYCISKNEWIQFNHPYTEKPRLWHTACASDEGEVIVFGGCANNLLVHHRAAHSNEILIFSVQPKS

[2] = target: T1, truncated His-MBP-Tev-KLHDC2 (residues 1-363); test: KLHDC2 HTRF binding assay; settings: 1 nM KLHDC2 (residues 1-363), fluorescein-labeled diglycine peptide probe

IC50 [1] [µM]	IC50 [2] [µM]	SMILES
> 5	> 5	O=C(O)Cn1cc(N2CCCCC2)ccc1=O [I-357]
> 5	> 5	CCCc1cccc(-c2ccc(=O)n(CC(=O)O)c2)c1 [I-358]
> 5	> 5	O=C(O)Cn1cc(-c2cnc(N3CCOCC3)nc2)ccc1=O [I-361]
> 5	> 5	COc1ncc(-c2ccc(=O)n(CC(=O)O)c2)cn1 [I-362]
> 5	> 5	COc1ncc(-c2ccc(=O)n(CC(=O)O)c2)cc1F [I-365]
> 5	> 5	Nc1ccc(-c2ccc(=O)n(CC(=O)O)c2)cn1 [I-367]
> 5	> 5	O=C(O)Cn1cc(-c2cccc(O)c2)ccc1=O [I-368]
> 5	> 5	O=C(O)Cn1cc(-c2ccc(F)cc2F)ccc1=O [I-370]
> 5	> 5	O=C(O)Cn1cc(-c2cc(F)cc(F)c2)ccc1=O [I-371]
> 5	> 5	O=C(O)Cn1cc(-c2ccc(C(F)(F)F)cc2)ccc1=O [I-372]
> 5	> 5	O=C(O)Cn1cc(-c2cccc(Cl)c2)ccc1=O [I-375]
> 5	> 5	Cc1cc(-c2ccc(=O)n(CC(=O)O)c2)ccc1F [I-376]
> 5	> 5	COc1cc(-c2ccc(=O)n(CC(=O)O)c2)ccn1 [I-378]
> 5	> 5	O=C(O)Cn1cc(-c2ccccc2Cl)ccc1=O [I-379]
> 5	> 5	O=C(O)Cn1cc(-c2ccc(N3CCCC3)nc2)ccc1=O [I-380]
> 5	> 5	O=C(O)Cn1cc(-c2cccc(C(F)(F)F)c2)ccc1=O [I-381]
> 5	> 5	CS(=O)(=O)c1cccc(-c2ccc(=O)n(CC(=O)O)c2)c1 [I-385]
> 5	> 5	O=C(O)Cn1cc(-c2ccc3cn[nH]c3c2)ccc1=O [I-386]
> 5	> 5	O=C(O)Cn1cc(-c2ccc3[nH]ncc3c2)ccc1=O [I-387]
> 5	> 5	O=C(O)Cn1cc(-c2ccc(C(=O)N3CCOCC3)cc2)ccc1=O [I-392]
> 5	> 5	CN(C)C(=O)c1ccc(-c2ccc(=O)n(CC(=O)O)c2)cc1 [I-393]
> 5	> 5	O=C(O)Cn1cc(-c2ccccc2F)ccc1=O [I-395]
> 5	> 5	Cc1ccc(Cl)cc1-c1ccc(=O)n(CC(=O)O)c1 [I-401]
> 5	> 5	Cc1cccc(C)c1-c1ccc(=O)n(CC(=O)O)c1 [I-404]
> 5	> 5	O=C(O)Cn1cc(-c2ccccc2O)ccc1=O [I-406]
> 5	> 5	Cc1cc(C)cc(-c2ccc(=O)n(CC(=O)O)c2)c1 [I-408]
> 5	> 5	Cc1ccc(C)c(-c2ccc(=O)n(CC(=O)O)c2)c1 [I-419]
> 5	> 5	O=C(O)Cn1cc(-c2cccc(F)c2)ccc1=O [I-420]
> 5	> 5	Cc1cccc(-c2ccc(=O)n(CC(=O)O)c2)c1 [I-422]
> 5	> 5	O=C(O)Cn1cc(-c2cccs2)ccc1=O [I-424]

Continued, compound first:

SMILES	IC50 [1] [µM]	IC50 [2] [µM]
COc1ccc(-c2cc(C)ccc2C)cc1CC(=O)O [I-354]	> 5	> 5
O=C(O)Cn1cc(N2CCOCC2)ccc1=O [I-355]	> 5	> 5
Cc1cc(C)c(-c2ccc(=O)n(CC(=O)O)c2)cc1C [I-356]	> 5	> 5
COc1cc(C)c(-c2ccc(=O)n(CC(=O)O)c2)cc1C [I-359]	> 5	> 5
Cc1cc(-c2ccc(=O)n(CC(=O)O)c2)c(C)cc1O [I-360]	> 5	> 5
Cn1ccc2cccc(-c3ccc(=O)n(CC(=O)O)c3)c21 [I-363]	> 5	> 5
Cc1ccc(C#N)c(-c2ccc(=O)n(CC(=O)O)c2)c1 [I-364]	> 5	> 5
Cc1cc(OCc2ccccc2)ccc1-c1ccc(=O)n(CC(=O)O)c1 [I-366]	> 5	> 5
O=C(O)Cn1cc(-c2ccccc2C(F)(F)F)ccc1=O [I-369]	> 5	> 5
O=C(O)Cn1cc(C(=O)NCc2ccccc2)ccc1=O [I-373]	> 5	> 5
O=C(O)Cn1cc(C(=O)Nc2ccccc2)ccc1=O [I-374]	> 5	> 5
O=C(O)Cn1cc(NC(=O)Cc2ccccc2)ccc1=O [I-377]	> 5	> 5
O=C(O)Cn1cc(NC(=O)c2ccccc2)ccc1=O [I-382]	> 5	> 5
CN(C)C(=O)c1ccc(-c2ccc(=O)n(CC(=O)O)c2)c(F)c1 [I-383]	> 5	> 5
CN(C)C(=O)c1ccc(-c2ccc(=O)n(CC(=O)O)c2)cc1F [I-384]	> 5	> 5
CN(C)C(=O)c1ccc(-c2ccc(=O)n(CC(=O)O)c2)cc1Cl [I-388]	> 5	> 5
O=C(O)Cn1cc(-c2cc(F)c(O)c(F)c2)ccc1=O [I-389]	> 5	> 5

SMILES	IC50 [1] [µM]	IC50 [2] [µM]
Cc1ccc(C)c(-c2cccn(CC(=O)O)c2=O)c1 [I-390]	> 5	> 5
Cc1cccc(-c2cccn(CC(=O)O)c2=O)c1 [I-391]	> 5	> 5
CS(=O)(=O)c1ccccc1-c1ccc(=O)n(CC(=O)O)c1 [I-394]	> 5	> 5
COc1cc(F)cc(-c2ccc(=O)n(CC(=O)O)c2)c1 [I-396]	> 5	> 5
O=C(O)Cn1cc(-c2cccc3ccccc23)ccc1=O [I-409]	> 5	> 5
O=C(O)Cc1ccccc1O [I-425]	> 5	> 5
Cc1ccc2c(c1C)NC(C(=O)O)C1CC=CC21 (centres unmarked) [I-426]	> 5	> 5
Nc1ccc(F)c2c(O)n[nH]c12 [I-427]	> 5	0.5 to 5
O=C(O)Cn1ccccc1=O [I-428]	> 5	> 5
O=C(O)Cn1cc(C(F)(F)F)ccc1=O [I-429]	> 5	> 5
COc1cc(-c2ccc(F)c(CCCCCCCCCNC(=O)C[C@@H]3N=C(c4ccc(Cl)cc4)c4c(sc(C)c4C)-n4c(C)nnc43)c2)ccc1C(=O)Nc1ccc(=O)n(CC(=O)O)c1 [I-469]	0.05 to 0.5	0.5 to 5
COc1cc(-c2ccc(CCCCCCCCCNC(=O)C[C@@H]3N=C(c4ccc(Cl)cc4)c4c(sc(C)c4C)-n4c(C)nnc43)cc2)ccc1C(=O)Nc1ccc(=O)n(CC(=O)O)c1 [I-470]	0.05 to 0.5	0.5 to 5
Cc1sc2c(c1C)C(c1ccc(Cl)cc1)=N[C@@H](CC(=O)NCCCCCCc1ccc(C(=O)Nc3ccc(=O)n(CC(=O)O)c3)cc1-c1cccnc1)c1nnc(C)n1-2 [I-473]	< 0.05	0.05 to 0.5
Cc1sc2c(c1C)C(c1ccc(Cl)cc1)=N[C@@H](CC(=O)NCCCCCCn1ccc3c(C(=O)Nc4ccc(=O)n(CC(=O)O)c4)cccc31)c1nnc(C)n1-2 [I-474]	< 0.05	< 0.05
Cc1sc2c(c1C)C(c1ccc(Cl)cc1)=N[C@@H](CC(=O)NCCCCCCc1ccncc1-c1cccc(C(=O)Nc3ccc(=O)n(CC(=O)O)c3)c1)c1nnc(C)n1-2 [I-475]	< 0.05	0.05 to 0.5
Cc1sc2c(c1C)C(c1ccc(Cl)cc1)=N[C@@H](CC(=O)NCCCCCCc1cc(C(=O)Nc3ccc(=O)n(CC(=O)O)c3)cc(-c3cccnc3)c1)c1nnc(C)n1-2 [I-476]	< 0.05	0.05 to 0.5
Cc1sc2c(c1C)C(c1ccc(Cl)cc1)=N[C@@H](CC(=O)NCCCCCCc1cncc(-c3cccc(C(=O)Nc4ccc(=O)n(CC(=O)O)c4)c3)c1)c1nnc(C)n1-2 [I-477]	< 0.05	< 0.05
